# Results taken from patent US20120128639A1, “In Vitro Production Of Oligodendrocytes From Human Umbilical Cord Stem Cells” (UNIVERSITY OF CENTRAL FLORIDA RESEARCH FOUNDATION, INC., priority 2009, published 2012).
# Where “and” joins values, the source holds several entries; their conditions need not be identical. Equal entries are not always repeated. Entries after “also recorded” stand apart in the source; their conditions may differ.
# Tests used:
# [1] = system: human multipotent progenitor cells (MLPCs) from umbilical cord; conditions: 3D environment; for need of the growth factor for process formation: presence or absence in medium
# Experimental: MLPCs were seeded on DETA-coated glass coverslips (18 mm) at a density of 4×10^3 cells/cm^2 in growth medium. After 3 days, at about 60% confluency, cells were incubated for 24 hours in pre-induction medium, consisting of DMEM, 15% FBS. FGF-2, EGF (20 ng/ml each, R & D Systems, Minneapolis, Minn.) and PDGF-AA (10 ng/ml, Chemicon International, Temecula, Calif.). To initiate differentiation, the pre-induction medium was removed, the cells were washed 2× with Hanks' balanced salts solution (Gibco BRL) and transferred to serum-free differentiation medium.
# Construction of 3D Environment MLPCs were plated on DETA-coated glass coverslips (18 mm) in growth medium. At about 60% confluence, growth medium was replaced with pre-induction medium. After the medium replacement, another set of coverslips was placed on the top of the cells. Prior to the placement, top coverslips were ethanol sterilized and washed in the pre-induction medium. After 24 hours the pre-induction medium was removed, the cells were washed 2× with Hanks' Balanced Salts Solution and transferred to serum-free differentiation medium.
# Phase-contrast images were taken with a commercial Nikon Coolpix 990 camera using the Zeiss Axiovert S100 microscope. Pictures were analyzed using Scion Image Software (Scion Corp., Frederick, Md.).
# The morphological and immunocytochemical quantification was performed on undifferentiated stem cells or cells during various differentiation stages. For each coverslip, at least 10 pictures were taken from randomly chosen views under 200× magnification. All the marker-positive cells were counted, as well as the total number of cells in these views. At least three coverslips in each group were quantified and data were expressed as average±standard deviation (SD). Statistical differences between different experimental groups were analyzed by Student's t-test.
# [2] = system: human multipotent progenitor cells (MLPCs) from umbilical cord; experiment: Immunocytochemical analysis of MLPC differentiation in 3D environment (NE or AR agonists); format: cell-based; conditions: for cells stained positively for A2B5 / cells stained positively for O1 galactocerebroside / cells stained positively for O4 / cells stained positively for MBP: 30 days of differentiation, 20 μM added daily
# Experimental: To characterize cells by immunocytochemistry, the top coverslips, if present, were first carefully removed. […] Cambridge, Mass.). Following a PBS washing, cells were incubated with an Alexa Fluor 488-conjugated anti-mouse IgG or Alexa Fluor 488-conjugated anti-rabbit IgG for 2 hours at room temperature. After a PBS washing, the coverslips were mounted with Vectashield mounting medium ([…], Vector Laboratories, Burlingame, Calif.) onto slides. For visualizing cellular nuclei, the specimens were counterstained with DAPI. Immunoreactivity was observed and analyzed by using an Ultra VIEWTM LCI confocal imaging system (Perkin Elmer).
# α1-ARs = experiment: Immunocytochemical analysis of α1-AR expression in MLPCs; format: cell-based, human; conditions: undifferentiated MLPCs; 24 hrs treatment with bFGF alone
# Experimental: (§1) To characterize cells by immunocytochemistry, the top coverslips, if present, were first carefully removed. Cells were then briefly washed with Hanks' balanced salts solution and fixed in 4% paraformaldehyde for about 18 min. Fixed cells were stored in PBS, permeabilized with 0.5% Triton 100× in PBS for 7 min. blocked with 5% donkey serum for 1 hr, followed by incubation with primary antibody overnight at 4° C. Primary antibodies were mouse monoclonal A2B5 (MAB312, 1:250). O4 (MAB345, 1:100). O1 (MAB344, 1:200), MBP (1:25), rabbit polyclonal anti-galactocerebroside (AB142, 1:200), all from Chemicon, mouse monoclonal beta-2-AR (sc-81577, 1:200), rabbit polyclonal beta-1AR (sc-567, 1:250) from Santa Cruz Biotechnology, and alpha-1-AR (ab3462, 1:1000, Abcam Inc. Cambridge, Mass.). Following a PBS washing, cells were incubated with an Alexa Fluor 488-conjugated anti-mouse IgG or Alexa Fluor 488-conjugated anti-rabbit IgG for 2 hours at room temperature. After a PBS washing, the coverslips were mounted with Vectashield mounting medium (H1000, Vector Laboratories, Burlingame, Calif.) onto slides. For visualizing cellular nuclei, the specimens were counterstained with DAPI. Immunoreactivity was observed and analyzed by using an Ultra VIEW™ LCI confocal imaging system (Perkin Elmer).
# [3] = system: human multipotent progenitor cells (MLPCs) from umbilical cord; experiment: Morphological analysis of MLPC differentiation in 2D environment; format: cell-based; conditions: for need of the factor for the desired morphology (omission from differentiation medium): 15 days in differentiation medium
# Experimental: MLPCs were seeded on DETA-coated glass coverslips (18 mm) at a density of 4×10^3 cells/cm^2 in growth medium. After 3 days, at about 60% confluency, cells were incubated for 24 hours in pre-induction medium, consisting of DMEM, 15% FBS. […] To initiate differentiation, the pre-induction medium was removed, the cells were washed 2× with Hanks' balanced salts solution (Gibco BRL) and transferred to serum-free differentiation medium.
# [4] = system: human multipotent progenitor cells (MLPCs) from umbilical cord; experiment: Immunocytochemical analysis of MLPC differentiation into oligodendrocyte lineage in 2D environment; format: cell-based
# Experimental: as §1
# [5] = 8 days of differentiation, differentiation medium with 20 μM NE
molecule,measurement,setting,value
PDGF,need of the growth factor for process formation,[1],required
CNC[C@H](O)c1cccc(O)c1 [phenylephrine],cells with more mature morphology with developed processes,[1]; day 30,10% and 15%
same,cells that began to develop processes,[1]; within 15 days of differentiation,approximately 40%
same,cells stained positively for A2B5,[2],40.5±3.4%
same,cells stained positively for O1 galactocerebroside,[2],15.2±1.5%
same,cells stained positively for O4,[2],39.8±2.8%
bFGF: growth factor in pre-induction and differentiation medium,need of the growth factor for process formation,[1],not essential
same,nuclear expression of α1-ARs,α1-ARs,significant increase in staining intensity; also recorded: increase nuclear expression of α1-ARs
COC(=O)[C@@]1(O)C[C@H]2O[C@]1(C)n1c3ccccc3c3c4c(c5c6ccccc6n2c5c31)C(=O)NC4 [K252a],need of the factor for the desired morphology (omission from differentiation medium),[3],essential
"NC[C@H](O)c1ccc(O)c(O)c1 [NE, norepinephrine]",survival of differentiated cells in culture,[1],more than 40 days
same,expression of MBP,[4]; 8 days of differentiation,absent
same,cells with positive staining for A2B5,[4]; [5],72.4% and 72.4±3.4%
same,cells with positive staining for O4,[4]; [5],69.9% and 69.9±4.9%
same,cells with positive staining for A2B5,[4]; day 15 of differentiation,70.3%
same,cells with positive staining for O4,[4]; day 15 of differentiation,69.7%
same,MBP staining,[4]; day 20 of differentiation,negative
same,O1 staining,[4]; day 20 of differentiation,negative
same,cells A2B5 positive,[4]; day 20 of differentiation,35.0% and 35.0±4.8%
same,cells O4 positive,[4]; day 20 of differentiation,49.7% and 49.7±7.9%
same,expression of MBP,"[4]; differentiating cells, time not stated (FIG. 3B)",absent
same,MBP staining,[2]; 20 days of differentiation,negative
same,O1 staining,[2]; 20 days of differentiation,negative
same,cells stained positively for A2B5,[2],57.7% and 57.7±3.6%
same,cells stained positively for MBP,[2],15.2% and 15.2±0.5%
same,cells stained positively for O4,[2],79.6% and 79.6±2.9%
same,need of the factor for the desired morphology (omission from differentiation medium),[3],essential
same,cells that developed multiple processes,[3]; within 8 days of differentiation,approximately 70%
CC(C)NCC(O)c1ccc(O)c(O)c1 (centres unmarked) [isoproterenol],cells displaying a bipolar morphology,"[1]; daily treatment, first 15 days, unchanged within 30 days",approximately 60%
same,cells stained positively for A2B5,[2],57.9±4.9%
same,cells stained positively for MBP,[2],negative
same,cells stained positively for O1 galactocerebroside,[2],negative
same,cells stained positively for O4,[2],42.5±2.7%
